These results are taken from patent US8709385B2, “Poloxamer foamable pharmaceutical compositions with active agents and/or therapeutic cells and uses” (Foamix Ltd., priority 2008, dated 2014).

Structures are written as SMILES. Where two headings read alike, the source gives them in different places.

Series [1] in a line: Solubility of 3% sodium diclofenac in Poloxamer 407 in water. The series is classed as physicochemical. The following applies: 3% in 5, 7 and 10 percent of Poloxamer in water, heated to 75° C. and cooled. Here is the method:
All 3 concentrations were heated to 75° C. to dissolution and cooled.

Series [2] in a line: Microscope observation for crystals of active agent. The series is classed as physicochemical. Conditions: Poloxamer 407 at 15% concentration in the formulation. An excerpt:
Poloxamer 407 functions as co-solubilizer ingredient of sodium diclofenac.

The nature of series [3]: Solubility and gelling of salicylic acid in Poloxamer 188 solution. The series is classed as physicochemical. Conditions: 0.50 gr. in 12.5 gr. of 20% Poloxamer 188. From the text: In both vials, 1 & 2, there are 12.5 gr. of 20% Poloxamer 188/purified water stock solution (2.5 gr. Poloxamer 188+10 gr. purified water).
The conditions of series [4]: USP 29, cited from earlier work.

Take `O=C(O)Cc1ccccc1Nc1c(Cl)cccc1Cl` [sodium diclofenac]: the “crystals after 24 h” value in series [1] was “crystals were visually observed”. Besides, the “crystals under the microscope” value in series [2] is listed as “crystals were not observed”.

Regarding `O=C(O)c1ccccc1O` [Salicylic acid], the “state of Poloxamer 188 solution with doubled salicylic acid concentration” value in series [3] is given as “viscous gel with no fluidity”. Moreover, the solubility in water in series [4] (20° C.) is about 0.2%; in series [4] it was 1 gr. in 460 gr.
